Results from US12252524B2, “GIP/GLP1 co-agonist compounds” (Eli Lilly and Company, priority 2018, dated 2025).
Numbered stars: 1 amine (or outer) side, 2 acyl side, 3 side chain; on linkers, the order of the positions; unused ones are H or OH. Square brackets hold non-standard residues; d marks the D form. Side chains are listed from the residue outwards. Peptide text beside a SMILES is read from it. * marks the point of attachment. C20 diacid = O=C(O)CCCCCCCCCCCCCCCCCCC(=O)*; γGlu = O=C(O)[C@H](CCC(=O)[*:2])N[*:1]; αMeF = C[C@](N)(Cc1ccccc1)C(=O)O; αMeL = CC(C)C[C@](C)(N)C(=O)O; AEEA = NCCOCCOCC(=O)O; Aib = CC(C)(N)C(=O)O

Assays:
[1] = molecular target: human GLP-1R (Homo sapiens, UniProt P43220); experiment: [125I]-GLP-1 binding (SPA), human GLP-1 receptor; design: expressed in transfected cells; crude membranes; details: read-out: hGLP1R Ki, (nM) (SEM, n)
Sequence of human GLP-1R (P43220 24-463): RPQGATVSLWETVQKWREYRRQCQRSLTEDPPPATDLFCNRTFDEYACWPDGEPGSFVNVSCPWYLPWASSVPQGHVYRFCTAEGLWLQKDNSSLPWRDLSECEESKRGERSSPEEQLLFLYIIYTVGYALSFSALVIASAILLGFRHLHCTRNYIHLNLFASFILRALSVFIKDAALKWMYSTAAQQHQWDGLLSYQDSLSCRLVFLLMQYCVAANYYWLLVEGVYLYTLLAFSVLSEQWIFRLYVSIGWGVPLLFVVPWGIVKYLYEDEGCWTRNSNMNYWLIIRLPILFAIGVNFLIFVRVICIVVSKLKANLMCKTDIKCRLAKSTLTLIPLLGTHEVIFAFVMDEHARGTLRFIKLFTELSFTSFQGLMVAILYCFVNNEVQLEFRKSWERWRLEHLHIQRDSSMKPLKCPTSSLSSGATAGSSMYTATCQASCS
Procedure, shortened: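 Frozen cell pellets are lysed on ice in hypotonic Tris buffer, pH 7.5, homogenized, and centrifuged to a membrane pellet resuspended at about 1 to 3 mg/mL. Binding is then measured in HEPES-based buffer at pH 7.4, and curves are fitted to give IC50 and Ki.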

[2] = molecular target: T1, human GIP receptor (Homo sapiens, UniProt P48546); experiment: [125I]-GIP binding (SPA), human GIP receptor; details: read-out: hGIPR Ki, nM (SEM, n)
T1 construct: expressed in transfected cells; crude membranes
T1 sequence (P48546 22-466): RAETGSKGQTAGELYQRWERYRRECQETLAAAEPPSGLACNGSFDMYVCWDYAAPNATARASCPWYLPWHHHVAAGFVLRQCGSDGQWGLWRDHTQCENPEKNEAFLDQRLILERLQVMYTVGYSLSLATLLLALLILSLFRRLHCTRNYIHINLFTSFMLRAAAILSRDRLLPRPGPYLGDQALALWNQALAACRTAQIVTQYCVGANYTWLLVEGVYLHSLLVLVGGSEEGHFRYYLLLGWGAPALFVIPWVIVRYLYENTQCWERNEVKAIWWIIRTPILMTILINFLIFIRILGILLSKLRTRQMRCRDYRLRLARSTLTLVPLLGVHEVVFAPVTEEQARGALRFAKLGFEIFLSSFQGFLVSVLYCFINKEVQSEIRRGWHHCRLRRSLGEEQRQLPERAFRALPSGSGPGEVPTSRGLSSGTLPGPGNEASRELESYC

[3] = molecular target: human GLP-1 receptor (GLP-1R) (Homo sapiens, UniProt P43220); experiment: cAMP pharmacological functional assay in presence of casein, hGLP-1R; format: cell-based; details: HEK293 cells expressing hGLP-1R, 0.1% Casein, geometric mean; read-out: hGLP1R cAMP Rel EC50 nM (SEM, n)
Sequence of human GLP-1 receptor (GLP-1R) (P43220 24-463): as the sequence (P43220 24-463) above

[4] = molecular target: T2, human Gcg receptor (Homo sapiens, UniProt P47871); experiment: [125I]-Glucagon binding (SPA), human Gcg receptor; details: read-out: hGLcgR Ki, nM (SEM, n)
T2 construct: expressed in transfected cells; crude membranes
T2 sequence (P47871 26-477): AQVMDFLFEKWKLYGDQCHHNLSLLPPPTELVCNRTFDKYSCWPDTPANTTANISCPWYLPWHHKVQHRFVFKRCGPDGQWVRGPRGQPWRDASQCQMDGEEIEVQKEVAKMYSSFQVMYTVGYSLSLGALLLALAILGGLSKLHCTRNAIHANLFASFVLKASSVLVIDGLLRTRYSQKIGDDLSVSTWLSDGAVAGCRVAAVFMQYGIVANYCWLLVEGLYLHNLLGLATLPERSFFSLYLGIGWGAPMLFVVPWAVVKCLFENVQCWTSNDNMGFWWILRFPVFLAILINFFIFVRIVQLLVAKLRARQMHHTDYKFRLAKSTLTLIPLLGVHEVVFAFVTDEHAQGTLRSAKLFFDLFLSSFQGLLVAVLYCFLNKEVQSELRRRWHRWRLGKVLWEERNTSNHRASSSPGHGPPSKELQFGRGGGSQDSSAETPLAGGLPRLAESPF
Procedure, shortened: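 Scintillation counts are taken after membranes and WGA beads incubate and settle for 12 hours at room temperature. Buffer is 25 mM HEPES, pH 7.4, with CaCl2, MgCl2, bacitracin and Tween-20. Ki values, from four-parameter IC50 fits, are geometric means over independent days.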

[5] = molecular target: T3, gastric inhibitory peptide receptor (GIPR) (Homo sapiens, UniProt P48546); experiment: cAMP pharmacological functional assay in presence of casein, hGIPR; format: cell-based; details: HEK293 cells expressing hGIPR, 0.1% Casein, geometric mean; read-out: hGIPR cAMP Rel EC50 nM (SEM, n)
T3 sequence (P48546 22-466): T1 sequence (P48546 22-466)

SMILES	Ki [1]	Ki [2]	EC50 [3]	Ki [4]	EC50 [5]
CC[C@H](C)[C@H](NC(=O)[C@H](CC(C)C)NC(=O)[C@H](Cc1ccc(O)cc1)NC(=O)[C@H](CCC(=O)O)NC(=O)[C@@H](NC(=O)[C@H](Cc1ccccc1)NC(=O)[C@H](C)NC(=O)C(C)(C)NC(=O)[C@H](CCC(N)=O)NC(=O)[C@H](C)NC(=O)[C@H](CCCCNC(=O)COCCOCCNC(=O)COCCOCCNC(=O)CC[C@H](NC(=O)CCCCCCCCCCCCCCCCCCC(=O)O)C(=O)O)NC(=O)[C@H](CCCCN)NC(=O)[C@H](CC(=O)O)NC(=O)[C@H](CC(C)C)NC(=O)[C@](C)(CC(C)C)NC(=O)[C@@H](NC(=O)[C@H](CO)NC(=O)[C@H](Cc1ccc(O)cc1)NC(=O)[C@H](CC(=O)O)NC(=O)[C@H](CO)NC(=O)[C@@H](NC(=O)[C@](C)(Cc1ccccc1)NC(=O)[C@@H](NC(=O)CNC(=O)[C@H](CCC(=O)O)NC(=O)C(C)(C)NC(=O)[C@@H](N)Cc1ccc(O)cc1)[C@@H](C)O)[C@@H](C)O)[C@@H](C)CC)[C@@H](C)CC)C(=O)N[C@@H](CCC(=O)O)C(=O)N[C@@H](C)C(=O)NCC(=O)N1CCC[C@H]1C(=O)N[C@@H](CO)C(=O)N[C@@H](CO)C(=O)NCC(=O)N[C@@H](C)C(=O)N1CCC[C@H]1C(=O)N1CCC[C@H]1C(=O)N1CCC[C@H]1C(=O)N[C@@H](CO)C(N)=O [Example 126] (H-Y[Aib]EGT[αMeF]TSDYSI[αMeL]LDKK([AEEA-AEEA-γGlu-C20 diacid])AQ[Aib]AFIEYLIEAGPSSGAPPPS-NH2; N-terminus assumed)	1.46 nM	0.0644 nM	0.0715 nM	101 nM	0.0685 nM
CC[C@H](C)[C@H](NC(=O)[C@H](CC(C)C)NC(=O)[C@H](Cc1ccc(O)cc1)NC(=O)[C@H](CCC(=O)O)NC(=O)[C@@H](NC(=O)[C@H](Cc1ccccc1)NC(=O)[C@H](C)NC(=O)C(C)(C)NC(=O)[C@H](CCC(N)=O)NC(=O)[C@H](C)NC(=O)[C@H](CCCCNC(=O)COCCOCCNC(=O)COCCOCCNC(=O)CC[C@H](NC(=O)CCCCCCCCCCCCCCCCCCC(=O)O)C(=O)O)NC(=O)[C@H](CCCCN)NC(=O)[C@H](CC(=O)O)NC(=O)[C@H](CC(C)C)NC(=O)[C@H](CC(C)C)NC(=O)[C@@H](NC(=O)[C@H](CO)NC(=O)[C@@H](NC(=O)[C@H](CC(=O)O)NC(=O)[C@H](CO)NC(=O)[C@@H](NC(=O)[C@](C)(Cc1ccccc1)NC(=O)[C@@H](NC(=O)CNC(=O)[C@H](CCC(=O)O)NC(=O)C(C)(C)NC(=O)[C@@H](N)Cc1ccc(O)cc1)[C@@H](C)O)[C@@H](C)O)[C@@H](C)CC)[C@@H](C)CC)[C@@H](C)CC)C(=O)N[C@@H](CCC(=O)O)C(=O)NCC(=O)NCC(=O)N1CCC[C@H]1C(=O)N[C@@H](CO)C(=O)N[C@@H](CO)C(=O)NCC(=O)N[C@@H](C)C(=O)N1CCC[C@H]1C(=O)N1CCC[C@H]1C(=O)N1CCC[C@H]1C(=O)N[C@@H](CO)C(N)=O [Example 127] (H-Y[Aib]EGT[αMeF]TSDISILLDKK([AEEA-AEEA-γGlu-C20 diacid])AQ[Aib]AFIEYLIEGGPSSGAPPPS-NH2; N-terminus assumed)	1.86 nM	0.126 nM	0.145 nM	43.6 nM	0.158 nM
CC[C@H](C)[C@H](NC(=O)[C@H](CC(C)C)NC(=O)[C@H](Cc1ccc(O)cc1)NC(=O)[C@H](CCC(=O)O)NC(=O)[C@@H](NC(=O)[C@H](Cc1ccccc1)NC(=O)[C@H](C)NC(=O)C(C)(C)NC(=O)[C@H](CCC(N)=O)NC(=O)[C@H](C)NC(=O)[C@H](CCCCNC(=O)COCCOCCNC(=O)COCCOCCNC(=O)CC[C@H](NC(=O)CCCCCCCCCCCCCCCCCCC(=O)O)C(=O)O)NC(=O)[C@H](CCCCN)NC(=O)[C@H](CC(=O)O)NC(=O)[C@H](CC(C)C)NC(=O)[C@H](CC(C)C)NC(=O)[C@@H](NC(=O)[C@H](CO)NC(=O)[C@H](Cc1c[nH]cn1)NC(=O)[C@H](CC(=O)O)NC(=O)[C@H](CO)NC(=O)[C@@H](NC(=O)[C@](C)(Cc1ccccc1)NC(=O)[C@@H](NC(=O)CNC(=O)[C@H](CCC(=O)O)NC(=O)C(C)(C)NC(=O)[C@@H](N)Cc1ccc(O)cc1)[C@@H](C)O)[C@@H](C)O)[C@@H](C)CC)[C@@H](C)CC)C(=O)N[C@@H](CCC(=O)O)C(=O)NCC(=O)NCC(=O)N1CCC[C@H]1C(=O)N[C@@H](CO)C(=O)N[C@@H](CO)C(=O)NCC(=O)N[C@@H](C)C(=O)N1CCC[C@H]1C(=O)N1CCC[C@H]1C(=O)N1CCC[C@H]1C(=O)N[C@@H](CO)C(N)=O [Example 128] (H-Y[Aib]EGT[αMeF]TSDHSILLDKK([AEEA-AEEA-γGlu-C20 diacid])AQ[Aib]AFIEYLIEGGPSSGAPPPS-NH2)	1.88 nM	0.0625 nM	0.0924 nM	433 nM	0.0694 nM
CC[C@H](C)[C@H](NC(=O)[C@H](CC(C)C)NC(=O)[C@H](Cc1ccc(O)cc1)NC(=O)[C@H](CCC(=O)O)NC(=O)[C@@H](NC(=O)[C@H](Cc1ccccc1)NC(=O)[C@H](C)NC(=O)C(C)(C)NC(=O)[C@H](CCC(N)=O)NC(=O)[C@H](C)NC(=O)[C@H](CCCCNC(=O)COCCOCCNC(=O)COCCOCCNC(=O)CC[C@H](NC(=O)CCCCCCCCCCCCCCCCCCC(=O)O)C(=O)O)NC(=O)[C@H](CCCCN)NC(=O)[C@H](CC(=O)O)NC(=O)[C@H](CC(C)C)NC(=O)[C@H](CC(C)C)NC(=O)[C@@H](NC(=O)[C@H](CO)NC(=O)[C@H](CC(C)C)NC(=O)[C@H](CC(=O)O)NC(=O)[C@H](CO)NC(=O)[C@@H](NC(=O)[C@](C)(Cc1ccccc1)NC(=O)[C@@H](NC(=O)CNC(=O)[C@H](CCC(=O)O)NC(=O)C(C)(C)NC(=O)[C@@H](N)Cc1ccc(O)cc1)[C@@H](C)O)[C@@H](C)O)[C@@H](C)CC)[C@@H](C)CC)C(=O)N[C@@H](CCC(=O)O)C(=O)NCC(=O)NCC(=O)N1CCC[C@H]1C(=O)N[C@@H](CO)C(=O)N[C@@H](CO)C(=O)NCC(=O)N[C@@H](C)C(=O)N1CCC[C@H]1C(=O)N1CCC[C@H]1C(=O)N1CCC[C@H]1C(=O)N[C@@H](CO)C(N)=O [Example 129] (H-Y[Aib]EGT[αMeF]TSDLSILLDKK([AEEA-AEEA-γGlu-C20 diacid])AQ[Aib]AFIEYLIEGGPSSGAPPPS-NH2)	1 nM	0.0278 nM	0.121 nM	14.9 nM	0.106 nM
CC[C@H](C)[C@H](NC(=O)[C@H](CC(C)C)NC(=O)[C@H](Cc1ccc(O)cc1)NC(=O)[C@H](CCC(=O)O)NC(=O)[C@@H](NC(=O)[C@H](Cc1ccccc1)NC(=O)[C@H](C)NC(=O)C(C)(C)NC(=O)[C@H](CCC(N)=O)NC(=O)[C@H](C)NC(=O)[C@H](CCCCNC(=O)COCCOCCNC(=O)COCCOCCNC(=O)CC[C@H](NC(=O)CCCCCCCCCCCCCCCCCCC(=O)O)C(=O)O)NC(=O)[C@H](CCCCN)NC(=O)[C@H](CC(=O)O)NC(=O)[C@H](CC(C)C)NC(=O)[C@H](CC(C)C)NC(=O)[C@@H](NC(=O)[C@H](CO)NC(=O)[C@H](CCC(=O)O)NC(=O)[C@H](CC(=O)O)NC(=O)[C@H](CO)NC(=O)[C@@H](NC(=O)[C@](C)(Cc1ccccc1)NC(=O)[C@@H](NC(=O)CNC(=O)[C@H](CCC(=O)O)NC(=O)C(C)(C)NC(=O)[C@@H](N)Cc1ccc(O)cc1)[C@@H](C)O)[C@@H](C)O)[C@@H](C)CC)[C@@H](C)CC)C(=O)N[C@@H](CCC(=O)O)C(=O)NCC(=O)NCC(=O)N1CCC[C@H]1C(=O)N[C@@H](CO)C(=O)N[C@@H](CO)C(=O)NCC(=O)N[C@@H](C)C(=O)N1CCC[C@H]1C(=O)N1CCC[C@H]1C(=O)N1CCC[C@H]1C(=O)N[C@@H](CO)C(N)=O [Example 130] (H-Y[Aib]EGT[αMeF]TSDESILLDKK([AEEA-AEEA-γGlu-C20 diacid])AQ[Aib]AFIEYLIEGGPSSGAPPPS-NH2; N-terminus assumed)	3.66 nM	0.177 nM	0.368 nM	> 1060 nM	1.55 nM
